The values below are quoted from earlier work in patent publication US6335015B1, “Method of the prophylactic treatment of mastitis” (Astacarotene AB, priority 1997, dated 2002).

SMILES strings stand for the structures.

One data set relates to sows. The following applies: feed supplemented with astaxanthin prior to parturition and during lactation.
The conditions of data set [1]: biological tests.

Turning to `CC1=C(/C=C/C(C)=C/C=C/C(C)=C/C=C/C=C(C)/C=C/C=C(C)/C=C/C2=C(C)C(=O)[C@@H](O)CC2(C)C)C(C)(C)C[C@H](O)C1=O` [astaxanthin], the piglets born alive entry in the data set on sows was “more piglets born alive”. The “antioxidative properties compared to other carotenoids” value in data set [1] is reported as “clearly the best antioxidative properties”.
